# Experimental data taken from ChEMBL document CHEMBL1201862, “PubChem BioAssay data set” (2004).
#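 Method: 48-hour compound exposure of cells in 96-well plates, five concentrations, linear interpolation of endpoints. GI50: concentration for 50% inhibition of growth.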 Calls of active or inactive are those of the source. No stated cut-off is given here; in the data, active = GI50 up to about 1.1 µM and inactive = higher.
# Tests used:
# Experiment in all cases: inhibition of tumour cell growth, NCI panel, 48 h
# 786-0 = system: 786-0
# A549 = system: A549
# ACHN = system: ACHN
# BT-549 = system: BT-549
# CCRF-CEM = system: CCRF-CEM
# COLO 205 = system: COLO 205
# DU-145 = system: DU-145
# HCC 2998 = system: HCC 2998
# HCT-15 = system: HCT-15
# HL-60 = system: HL-60
# HOP-92 = system: HOP-92
# HT-29 = system: HT-29
# Hs-578T = system: Hs-578T
# IGROV-1 = system: IGROV-1
# K562 = system: K562
# KM12 = system: KM12
# LOX IMVI = system: LOX IMVI
# M14 = system: M14
# MCF7 = system: MCF7
# MDA-MB-231 = system: MDA-MB-231
# MDA-MB-435 = system: MDA-MB-435
# MDA-N = system: MDA-N
# MOLT-4 = system: MOLT-4
# Malme-3M = system: Malme-3M
# NCI-H226 = system: NCI-H226
# NCI-H23 = system: NCI-H23
# NCI-H460 = system: NCI-H460
# NCI-H522 = system: NCI-H522
# OVCAR-3 = system: OVCAR-3
# OVCAR-4 = system: OVCAR-4
# OVCAR-5 = system: OVCAR-5
# OVCAR-8 = system: OVCAR-8
# RPMI-8226 = system: RPMI-8226
# RXF 393 = system: RXF 393
# SF-268 = system: SF-268
# SF-295 = system: SF-295
# SK-MEL-28 = system: SK-MEL-28
# SK-MEL-2 = system: SK-MEL-2
# SK-MEL-5 = system: SK-MEL-5
# SN12C = system: SN12C
# SNB-19 = system: SNB-19
# SNB-75 = system: SNB-75
# SR = system: SR
# SW-620 = system: SW-620
# T47D = system: T47D
# TK-10 = system: TK-10
# U-251 = system: U-251
# UACC-257 = system: UACC-257
# UACC-62 = system: UACC-62
# UO-31 = system: UO-31
smiles,measurement,setting,value
CN1CCN(C(=S)N(C(=O)c2ccc(Cl)cc2)C2CCCCC2)CC1,GI50,786-0,> 100 µM (inactive)
same,GI50,A549,> 100 µM (inactive)
same,GI50,ACHN,> 100 µM (inactive)
same,GI50,BT-549,> 100 µM (inactive)
same,GI50,CCRF-CEM,72.4 µM (inactive)
same,GI50,COLO 205,> 100 µM (inactive)
same,GI50,DU-145,> 100 µM (inactive)
same,GI50,HCC 2998,> 100 µM (inactive)
same,GI50,HCT-15,> 100 µM
same,GI50,HL-60,61.7 µM (inactive)
same,GI50,HOP-92,> 100 µM (inactive)
same,GI50,HT-29,> 100 µM (inactive)
same,GI50,Hs-578T,27.4 µM (inactive)
same,GI50,IGROV-1,> 100 µM (inactive)
same,GI50,K562,51.3 µM (inactive)
same,GI50,KM12,> 100 µM (inactive)
same,GI50,LOX IMVI,> 100 µM (inactive)
same,GI50,M14,> 100 µM (inactive)
same,GI50,MCF7,> 100 µM (inactive)
same,GI50,MDA-MB-231,> 100 µM (inactive)
same,GI50,MDA-MB-435,> 100 µM (inactive)
same,GI50,MDA-N,> 100 µM (inactive)
same,GI50,MOLT-4,63.1 µM (inactive)
same,GI50,Malme-3M,> 100 µM (inactive)
same,GI50,NCI-H226,> 100 µM (inactive)
same,GI50,NCI-H23,> 100 µM (inactive)
same,GI50,NCI-H460,> 100 µM (inactive)
same,GI50,NCI-H522,> 100 µM (inactive)
same,GI50,OVCAR-3,> 100 µM (inactive)
same,GI50,OVCAR-4,> 100 µM (inactive)
same,GI50,OVCAR-5,> 100 µM (inactive)
same,GI50,OVCAR-8,> 100 µM (inactive)
same,GI50,RPMI-8226,> 100 µM (inactive)
same,GI50,RXF 393,> 100 µM (inactive)
same,GI50,SF-268,> 100 µM (inactive)
same,GI50,SF-295,> 100 µM (inactive)
same,GI50,SK-MEL-28,> 100 µM (inactive)
same,GI50,SK-MEL-2,> 100 µM (inactive)
same,GI50,SK-MEL-5,> 100 µM (inactive)
same,GI50,SN12C,> 100 µM (inactive)
same,GI50,SNB-19,> 100 µM (inactive)
same,GI50,SNB-75,20 µM (inactive)
same,GI50,SR,58.9 µM (inactive)
same,GI50,SW-620,> 100 µM (inactive)
same,GI50,T47D,> 100 µM (inactive)
same,GI50,TK-10,> 100 µM (inactive)
same,GI50,U-251,> 100 µM (inactive)
same,GI50,UACC-257,> 100 µM (inactive)
same,GI50,UACC-62,> 100 µM (inactive)
same,GI50,UO-31,> 100 µM (inactive)
